Experimental data taken from ChEMBL document CHEMBL1149679 (Bioorg Med Chem Lett, 2007).

Experiments:
[1] = molecular target: T1, Polyunsaturated fatty acid lipoxygenase ALOX15 (Oryctolagus cuniculus, UniProt P12530); assay: Inhibition of rabbit 15-lipoxygenase in presence of arachidonic acid
T1 sequence (P12530 whole entry): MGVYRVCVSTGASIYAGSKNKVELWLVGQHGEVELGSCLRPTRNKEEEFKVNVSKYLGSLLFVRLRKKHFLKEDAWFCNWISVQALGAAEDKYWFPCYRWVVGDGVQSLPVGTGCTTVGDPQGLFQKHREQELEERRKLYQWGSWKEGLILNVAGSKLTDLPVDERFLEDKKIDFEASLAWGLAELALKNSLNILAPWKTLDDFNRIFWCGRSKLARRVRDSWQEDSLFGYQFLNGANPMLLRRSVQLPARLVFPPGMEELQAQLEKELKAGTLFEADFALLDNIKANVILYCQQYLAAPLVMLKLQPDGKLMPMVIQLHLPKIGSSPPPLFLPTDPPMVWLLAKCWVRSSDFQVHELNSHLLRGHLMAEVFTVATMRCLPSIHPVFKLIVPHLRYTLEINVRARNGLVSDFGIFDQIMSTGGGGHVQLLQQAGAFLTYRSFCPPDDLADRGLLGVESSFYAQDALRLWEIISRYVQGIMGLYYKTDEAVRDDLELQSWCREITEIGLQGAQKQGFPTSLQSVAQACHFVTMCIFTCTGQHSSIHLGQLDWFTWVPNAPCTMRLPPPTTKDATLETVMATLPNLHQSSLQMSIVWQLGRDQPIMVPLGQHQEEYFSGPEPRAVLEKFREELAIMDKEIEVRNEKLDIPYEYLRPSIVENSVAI

[2] = molecular target: T1, Polyunsaturated fatty acid lipoxygenase ALOX15; assay: Inhibition of rabbit 15-lipoxygenase in presence of linoleic acid
[3] = molecular target: T2, Polyunsaturated fatty acid 5-lipoxygenase (Homo sapiens) (UniProt P09917); assay: Inhibition of human 5-lipoxygenase at 10 uM
T2 sequence (whole entry): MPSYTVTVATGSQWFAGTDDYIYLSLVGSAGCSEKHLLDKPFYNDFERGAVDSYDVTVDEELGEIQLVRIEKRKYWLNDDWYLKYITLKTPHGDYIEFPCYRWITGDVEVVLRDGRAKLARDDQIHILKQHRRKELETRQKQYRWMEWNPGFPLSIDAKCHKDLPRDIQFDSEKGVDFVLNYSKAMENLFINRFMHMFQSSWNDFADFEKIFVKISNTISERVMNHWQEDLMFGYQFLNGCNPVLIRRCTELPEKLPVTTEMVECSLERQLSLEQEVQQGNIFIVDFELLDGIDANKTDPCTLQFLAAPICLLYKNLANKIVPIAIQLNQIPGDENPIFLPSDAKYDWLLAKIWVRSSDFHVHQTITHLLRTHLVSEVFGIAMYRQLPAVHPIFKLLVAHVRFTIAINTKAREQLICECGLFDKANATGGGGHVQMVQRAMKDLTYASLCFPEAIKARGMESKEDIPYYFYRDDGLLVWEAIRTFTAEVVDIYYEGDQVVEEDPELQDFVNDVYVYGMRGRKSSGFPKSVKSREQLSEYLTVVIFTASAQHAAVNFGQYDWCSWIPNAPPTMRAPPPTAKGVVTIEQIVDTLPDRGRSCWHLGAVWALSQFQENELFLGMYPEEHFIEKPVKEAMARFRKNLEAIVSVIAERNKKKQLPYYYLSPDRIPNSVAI

[4] = molecular target: T3, Polyunsaturated fatty acid lipoxygenase ALOX12 (Homo sapiens) (UniProt P18054); assay: Inhibition of platelet 12-lipoxygenase at 10 uM
T3 sequence (whole entry): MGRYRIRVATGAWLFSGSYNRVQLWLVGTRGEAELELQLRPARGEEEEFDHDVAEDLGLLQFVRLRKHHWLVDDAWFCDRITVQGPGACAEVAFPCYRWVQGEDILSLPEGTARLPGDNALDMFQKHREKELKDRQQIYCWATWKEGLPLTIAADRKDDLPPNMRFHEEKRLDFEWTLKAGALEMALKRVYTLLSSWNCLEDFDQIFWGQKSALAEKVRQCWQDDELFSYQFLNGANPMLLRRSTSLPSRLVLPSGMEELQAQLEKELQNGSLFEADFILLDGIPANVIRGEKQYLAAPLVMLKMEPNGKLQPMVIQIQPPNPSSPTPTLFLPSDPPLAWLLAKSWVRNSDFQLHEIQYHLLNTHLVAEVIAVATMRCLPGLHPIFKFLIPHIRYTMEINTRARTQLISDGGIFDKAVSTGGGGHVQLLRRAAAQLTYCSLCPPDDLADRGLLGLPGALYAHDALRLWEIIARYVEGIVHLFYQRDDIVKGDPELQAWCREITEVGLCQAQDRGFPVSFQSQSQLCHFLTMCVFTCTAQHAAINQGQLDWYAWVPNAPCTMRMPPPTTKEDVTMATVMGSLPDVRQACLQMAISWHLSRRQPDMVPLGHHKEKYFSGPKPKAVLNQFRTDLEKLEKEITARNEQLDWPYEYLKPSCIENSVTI

[5] = molecular target: T4, Polyunsaturated fatty acid lipoxygenase ALOX15B (Homo sapiens) (UniProt O15296); assay: Inhibition of human recombinant 15-lipoxygenase over-expressed in CHO cells at 10 uM; assay type: cell-based
T4 sequence (whole entry): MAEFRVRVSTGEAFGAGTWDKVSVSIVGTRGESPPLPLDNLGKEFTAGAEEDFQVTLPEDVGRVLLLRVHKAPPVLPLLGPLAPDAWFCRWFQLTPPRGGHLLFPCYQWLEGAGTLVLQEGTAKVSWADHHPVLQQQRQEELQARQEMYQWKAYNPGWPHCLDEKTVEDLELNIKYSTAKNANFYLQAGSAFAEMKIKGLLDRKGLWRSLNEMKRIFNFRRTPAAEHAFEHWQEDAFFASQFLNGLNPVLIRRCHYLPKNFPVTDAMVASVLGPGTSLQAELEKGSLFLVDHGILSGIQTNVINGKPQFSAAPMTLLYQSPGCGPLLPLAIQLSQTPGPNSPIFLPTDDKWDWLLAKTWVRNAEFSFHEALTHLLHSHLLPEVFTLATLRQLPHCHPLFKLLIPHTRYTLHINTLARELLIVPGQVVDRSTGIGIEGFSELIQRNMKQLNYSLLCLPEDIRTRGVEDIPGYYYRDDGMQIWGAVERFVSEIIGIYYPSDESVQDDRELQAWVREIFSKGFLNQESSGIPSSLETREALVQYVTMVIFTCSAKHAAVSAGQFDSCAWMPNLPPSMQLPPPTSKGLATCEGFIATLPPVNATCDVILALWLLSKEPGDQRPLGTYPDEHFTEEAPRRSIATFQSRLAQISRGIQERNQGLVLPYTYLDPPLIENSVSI

[6] = molecular target: T2, Polyunsaturated fatty acid 5-lipoxygenase (Homo sapiens); assay: Inhibition of human 5-lipoxygenase at 3 uM
[7] = molecular target: T3, Polyunsaturated fatty acid lipoxygenase ALOX12 (Homo sapiens); assay: Inhibition of platelet 12-lipoxygenase at 3 uM
[8] = Cmax in Sprague-Dawley rat at 7 mg/kg, po; assay type: ADME, organism-based; parameters: dose 7 mg/kg, route oral; details: in vivo
[9] = Aqueous solubility at pH6.5; assay type: physicochemical; details: buffer, pH 6.5
[10] = molecular target: T5, Polyunsaturated fatty acid 5-lipoxygenase (Homo sapiens, UniProt P09917); assay: Inhibition of 5-lipoxygenase
T5 sequence (P09917 whole entry): T2 sequence (whole entry)

[11] = Hydrophilicity, log D at pH 6.5; assay type: physicochemical; details: buffer
[12] = molecular target: T6, Polyunsaturated fatty acid lipoxygenase ALOX12 (Homo sapiens, UniProt P18054); assay: Inhibition of platelet 12-lipoxygenase
T6 sequence (P18054 whole entry): T3 sequence (whole entry)

IC50 [1] [nM] | IC50 [2] [nM] | SMILES | other results
2800 | 364 | COc1ccc(-c2[nH]c(-c3ccccc3)nc2CCNS(=O)(=O)c2ccc(C)cc2)cc1 | 
162 | 33 | CCCCCc1ccc(S(=O)(=O)NCCc2nc(-c3ccccc3)[nH]c2-c2ccccc2)cc1 | inhibition [3]: 39%; inhibition [4]: 32%
132 | 10 | CCN([C@@H]1CCN(C(C)(C)c2ccccc2)C1)S(=O)(=O)NCCc1nc(-c2cccs2)[nH]c1-c1ccc(OC)cc1 | 
396 | 53 | CCCCCc1ccc(S(=O)(=O)NCCCc2nc(-c3cccs3)[nH]c2-c2ccc(OC)cc2)cc1 | 
 |  | CCN([C@@H]1CCN(C(C)c2ccc(F)cc2)C1)S(=O)(=O)NCCc1nc(-c2cccs2)[nH]c1-c1ccc(OC)cc1 (stereo partly specified) | inhibition [5]: 96%
50 | 14 | CCCCCc1ccc(S(=O)(=O)NCCc2nc(-c3ccccc3)[nH]c2-c2ccc(OC)cc2)cc1 | inhibition [6]: 15%; inhibition [7]: 45%; inhibition [5]: 83%
1100 | 99 | CCCCCc1ccc(S(=O)(=O)NCCc2nc(-c3cccc([N+](=O)[O-])c3)[nH]c2-c2ccc(OC)cc2)cc1 | 
132 | 45 | COc1ccc(-c2[nH]c(-c3cccs3)nc2CCNS(=O)(=O)N2CCN(c3ccccc3Cl)CC2)cc1 | 
3210 | 87 | CCCCCc1ccc(S(=O)(=O)NCCc2nc(-c3ccncc3)[nH]c2-c2ccc(OC)cc2)cc1 | 
 | 2810 | CCCCCc1ccc(S(=O)(=O)NCCc2nc(-c3cnccn3)[nH]c2-c2ccc(OC)cc2)cc1 | 
> 10000 | > 10000 | CCCCCc1ccc(S(=O)(=O)NCCc2nc(C3CC3)[nH]c2-c2ccc(OC)cc2)cc1 | 
375 | 38 | COc1ccc(-c2[nH]c(-c3cccs3)nc2CCNS(=O)(=O)N(C)[C@@H]2CCN(Cc3ccccc3)C2)cc1 | 
83 | 11 | COc1ccc(-c2[nH]c(-c3cccs3)nc2CCNS(=O)(=O)N(C)[C@@H]2CCN(Cc3ccc(Cl)c(Cl)c3)C2)cc1 | inhibition [3]: 67%; inhibition [4]: 42%
 | > 10000 | CCCCCc1ccc(S(=O)(=O)NCCc2[nH]cnc2-c2ccc(OC)cc2)cc1 | 
> 10000 | 1920 | CCCCCc1ccc(S(=O)(=O)NCCc2nc(C(C)(C)C)[nH]c2-c2ccc(OC)cc2)cc1 | 
646 | 91 | CCCCCN1CCN(S(=O)(=O)NCCc2nc(-c3cccs3)[nH]c2-c2ccc(OC)cc2)CC1 | 
13 | 6 | CCCCCc1ccc(S(=O)(=O)NCCc2nc(-c3cccs3)[nH]c2-c2ccc(OC)cc2)cc1 | inhibition [3]: 41%; Cmax [8]: 600 nM; solubility [9]: < 1 µg/mL; inhibition [4]: 50%; inhibition [5]: 98%; IC50 [10]: > 10000 nM; logD [11]: > 6; IC50 [12]: 9700 nM
1100 | 21 | CCCCCc1ccc(S(=O)(=O)NCCc2nc(-c3ccc(Cl)cc3)[nH]c2-c2ccc(OC)cc2)cc1 | 

IC50 [1] [nM] | IC50 [2] [nM] | SMILES | other results
372 | 72 | CCCCCc1ccc(S(=O)(=O)NCCc2nc(-c3ccccc3)[nH]c2-c2ccc(C(F)(F)F)cc2)cc1 | 
133 | 36 | COc1ccc(-c2[nH]c(-c3cccs3)nc2CCNS(=O)(=O)N2CCN(c3ccc(Cl)c(Cl)c3)CC2)cc1 | inhibition [5]: 84%
 | > 10000 | CCCCCc1ccc(S(=O)(=O)NCCc2nc(-c3ccc(OC)cc3)[nH]c2-c2ccc(OC)cc2)cc1 | 
2410 | 272 | COc1ccc(-c2[nH]c(-c3ccccc3)nc2CCNS(=O)(=O)N[C@H]2CCN(Cc3ccccc3)C2)cc1 | 
186 | 31 | COc1ccc(-c2[nH]c(-c3ccccc3)nc2CCNS(=O)(=O)N(C)[C@@H]2CCN(Cc3ccccc3)C2)cc1 | inhibition [5]: 70%
 | 560 | CCCCCc1ccc(S(=O)(=O)NCCc2nc(-c3cccnc3)[nH]c2-c2ccc(OC)cc2)cc1 | 
261 | 59 | CCCCCc1ccc(S(=O)(=O)NCCc2nc(-c3ccccc3)[nH]c2-c2ccc(F)cc2)cc1 | inhibition [3]: 45%; inhibition [4]: 47%
531 | 82 | CCCCCc1ccc(S(=O)(=O)NCCc2nc(-c3ccccc3)[nH]c2-c2cccc(OC)c2)cc1 | 
3450 | 212 | COc1ccc(-c2[nH]c(-c3ccccc3)nc2CCNS(=O)(=O)N2CCN(c3ccccc3)CC2)cc1 | 
5320 | 970 | CCCCCc1ccc(S(=O)(=O)NCCc2nc(-c3ccccn3)[nH]c2-c2ccc(OC)cc2)cc1 | 
 | > 10000 | CCCCCc1ccc(S(=O)(=O)NCCc2nc(C)[nH]c2-c2ccc(OC)cc2)cc1 | 
82.2 | 80 | COc1ccc(-c2[nH]c(-c3ccccc3)nc2CCNS(=O)(=O)N(C)[C@H]2CCN(Cc3ccccc3)C2)cc1 | 
378 | 55 | COc1ccc(-c2[nH]c(-c3ccccc3)nc2CCNS(=O)(=O)N2CCN(c3ccc(Cl)c(Cl)c3)CC2)cc1 | 
914 | 140 | CCCCCc1ccc(S(=O)(=O)NCCCc2nc(-c3ccccc3)[nH]c2-c2ccc(OC)cc2)cc1 | 
 | > 3000 | CCCCCc1ccc(S(=O)(=O)NCCc2nc(-c3ccc(C)cc3)[nH]c2-c2ccc(OC)cc2)cc1 | 
719 | 83 | COc1ccc(-c2[nH]c(-c3ccccc3)nc2CCNS(=O)(=O)N[C@@H]2CCN(Cc3ccccc3)C2)cc1 | 
 | 720 | CCCCCc1ccc(S(=O)(=O)NCCc2nc(-c3csc(C)n3)[nH]c2-c2ccc(OC)cc2)cc1 | 
